Source: article PMC3627577 (2013)
Starred links: 1 amine or outer side, 2 acyl side, 3 side chain; linkers in the order of their positions; H or OH if unused. Positions of bridges follow the written chain, without caps; N, C: chain ends. Non-standard residues stand in square brackets, D forms with d. Residues, ends and D or L forms follow the SMILES beside them. Chains are numbered I, II in the order given. Actinocin(9to1) = Cc1c2oc3c(C)ccc(C(=O)[*:1])c3nc-2c(C(=O)[*:2])c(N)c1=O; NMeV = CN[C@H](C(=O)O)C(C)C; Sar = CNCC(=O)O

Legend:
[1] = test system: AT2 hairpin (DNA, hairpin) ATGCATGCATTGTATGCATGCAT; experiment: SPR kinetics, bivalent ligand model; conditions: 50 mM NaCl; 20 mM Tris-HCl pH 7.3; ka/kd; site 1 of 2
[2] = test system: (CGG)16 (DNA, repeat) CGGCGGCGGCGGCGGCGGCGGCGGCGGCGGCGGCGGCGGCGGCGGCGG; experiment: UV melting, 260 nm; conditions: 50 mM NaCl; 20 mM Tris-HCl pH 7.3; 12 μM compound, 1 μM DNA
[3] = test system: GC1 hairpin (DNA, hairpin) AAAGCTTTTGTAAAGCTTT; experiment: SPR kinetics, 1:1 Langmuir; conditions: 50 mM NaCl; 20 mM Tris-HCl pH 7.3; ka/kd
[4] = test system: GC2 hairpin (DNA, hairpin) ATGCGCATTGTATGCGCAT; experiment: SPR kinetics, bivalent ligand model; conditions: 50 mM NaCl; 20 mM Tris-HCl pH 7.3; ka/kd; site 1 of 2
[5] = test system: GG2 hairpin (DNA, hairpin) ATGCGGCATTGTATGCGGCAT; experiment: SPR kinetics, bivalent ligand model; conditions: 50 mM NaCl; 20 mM Tris-HCl pH 7.3; ka/kd; site 1 of 2

SMILES	Ka1 [1] [M⁻¹]	ΔTm [2] [°C]	Ka1 [3] [M⁻¹]	Ka1 [4] [M⁻¹]	Ka1 [5] [M⁻¹]
Cc1c2oc3c(C)ccc(C(=O)N[C@@H]4C(=O)N[C@H](C(C)C)C(=O)N5CCC[C@H]5C(=O)N(C)CC(=O)N(C)[C@@H](C(C)C)C(=O)O[C@@H]4C)c3nc-2c(C(=O)N[C@@H]2C(=O)N[C@H](C(C)C)C(=O)N3CCC[C@H]3C(=O)N(C)CC(=O)N(C)[C@@H](C(C)C)C(=O)O[C@@H]2C)c(N)c1=O (I: T[dV]P[Sar][NMeV] / II: T[dV]P[Sar][NMeV]; ester I:1-I:C, II:1-II:C; linker I:N-II:N via Actinocin(9to1))	1.287e+07	23.4	2.29e+06	6.07e+06	3.08e+06
Cc1c2ccncc2c(C)c2c1[nH]c1ccccc12	–	11.8	–	–	–
COc1cccc2c1C(=O)c1c(O)c3c(c(O)c1C2=O)C[C@@](O)(C(C)=O)C[C@@H]3O[C@H]1C[C@H](N)[C@H](O)[C@H](C)O1	–	10.1	–	–	–
